From US6534523B1, “Hepatitis C inhibitor tri-peptides” (Boehringer Ingelheim (Canada) Ltd., priority 1998, dated 2003)
Read-outs that look alike come from different tables or passages of the source.

How the values were obtained:
Type in all cases: biochemical, HCV genotype 1b
HCV NS3 protease [1] = biological target: HCV NS3 protease (UniProt P26663); details: read-out: activity / potency (HCV NS3 protease inhibition); text comparison of P1 configuration
Experimental: (§1) Recombinant HCV NS3 Protease/NS4A Cofactor Peptide Radiometric Assay
(§2) The enzyme was cloned, expressed and prepared according to the protocol described in Example 36. The enzyme was stored at −80° C., thawed on ice and diluted just prior to use in the assay buffer containing the NS4A cofactor peptide.
(§3) The substrate used for the NS3 protease/NS4A cofactor peptide radiometric assay, DDIVPC-SMSYTW, is cleaved between the cysteine and the serine residues by the enzyme. The sequence DDIVPC-SMSYTW corresponds to the NS5A/NS5B natural cleavage site in which the cysteine residue in P2 has been substituted for a proline. […] (molar ratio enzyme:cofactor 1:100) in the absence or presence of inhibitors. The separation of substrate from products is performed by adding avidin-coated agarose beads to the assay mixture followed by filtration. […]
(§4) The NS2-NS5B-3′ non coding region was cloned by RT-PCR into the pCR®3 vector (Invitrogen) using RNA extracted from the serum of an HCV genotype 1b infected individual (provided by Dr. Bernard Willems, Hôpital St-Luc, Montréal, Québec, Canada). […] Fluorescence of the N-terminal product was monitored on a Perkin-Elmer LS-50B fluorometer equipped with a 96-well plate reader (excitation wavelength: 325 nm; emission wavelength: 423 nm). […]

HCV NS3 protease [2] = biological target: HCV NS3 protease (UniProt P26663); design: rows headed: difference in potency between (1R,2S) compound and its (1S,2S) isomer; other: 801 vs. corresponding (1S,2S) isomer; details: 801 vs. corresponding (1S,2S) isomer
Experimental: as §1, §2, §3, §4

HCV NS3 protease [3] = biological target: HCV NS3 protease (UniProt P26663); design: rows headed: IC50 (μM); IC50 (μM)

Chain of HCV NS3 protease (P26663 1027-1206, other chains not shown): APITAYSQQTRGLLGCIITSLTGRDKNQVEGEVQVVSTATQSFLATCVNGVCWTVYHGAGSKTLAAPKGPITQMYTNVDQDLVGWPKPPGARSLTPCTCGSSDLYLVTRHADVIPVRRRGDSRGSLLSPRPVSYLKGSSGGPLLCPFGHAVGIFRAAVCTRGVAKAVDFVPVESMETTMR

Row | SMILES | IC50 (HCV NS3 protease [1]) | difference in potency between (1R,2S) compound and its (1S,2S) isomer (HCV NS3 protease [2]) | IC50 (HCV NS3 protease [3]; Table 8) | IC50 (HCV NS3 protease [3]; Table 9)
1 | C=CC1CC1(NC(=O)C1CC(Oc2cc(-c3ccccc3)nc3cc(OC)ccc23)CN1C(=O)C(NC(=O)NC(C)(C)C)C(C)(C)C)C(=O)O (centres unmarked) [compound 801] | 6 nM | over 1500 fold | 6 nM | –
2 | C=CC1CC1(NC(=O)C1CC(Oc2cc(-c3ccccc3)nc3cc(OC)ccc23)CN1C(=O)C(NC(=O)OC(C)(C)C)C(C)(C)C)C(=O)O (centres unmarked) [compound 901] | 25 nM | – | – | 25 nM
